This is an account of results in ChEMBL document CHEMBL4725292 (J Med Chem, 2020).

The structures appear in SMILES notation.

For orientation: IC50 means the concentration that gives 50% inhibition. As usually defined, the Kd is the constant that tells how readily two partners part at equilibrium.

In assay [1] the target is Transcription initiation factor TFIID subunit 1 (Homo sapiens, UniProt P21675). Nature of the assay: Displacement of AlexaFluor 488-labelled BD-AF488 from TAF1 BD2 (unknown origin) incubated for 15 mins by TR-FRET assay. On the technique in general: In TR-FRET formats the signal depends on donor and acceptor labels being close together.
The target in assay [2] is T1, ATPase family AAA domain-containing protein 2 (Homo sapiens, UniProt Q6PL18).
T1 sequence (Q6PL18 whole entry): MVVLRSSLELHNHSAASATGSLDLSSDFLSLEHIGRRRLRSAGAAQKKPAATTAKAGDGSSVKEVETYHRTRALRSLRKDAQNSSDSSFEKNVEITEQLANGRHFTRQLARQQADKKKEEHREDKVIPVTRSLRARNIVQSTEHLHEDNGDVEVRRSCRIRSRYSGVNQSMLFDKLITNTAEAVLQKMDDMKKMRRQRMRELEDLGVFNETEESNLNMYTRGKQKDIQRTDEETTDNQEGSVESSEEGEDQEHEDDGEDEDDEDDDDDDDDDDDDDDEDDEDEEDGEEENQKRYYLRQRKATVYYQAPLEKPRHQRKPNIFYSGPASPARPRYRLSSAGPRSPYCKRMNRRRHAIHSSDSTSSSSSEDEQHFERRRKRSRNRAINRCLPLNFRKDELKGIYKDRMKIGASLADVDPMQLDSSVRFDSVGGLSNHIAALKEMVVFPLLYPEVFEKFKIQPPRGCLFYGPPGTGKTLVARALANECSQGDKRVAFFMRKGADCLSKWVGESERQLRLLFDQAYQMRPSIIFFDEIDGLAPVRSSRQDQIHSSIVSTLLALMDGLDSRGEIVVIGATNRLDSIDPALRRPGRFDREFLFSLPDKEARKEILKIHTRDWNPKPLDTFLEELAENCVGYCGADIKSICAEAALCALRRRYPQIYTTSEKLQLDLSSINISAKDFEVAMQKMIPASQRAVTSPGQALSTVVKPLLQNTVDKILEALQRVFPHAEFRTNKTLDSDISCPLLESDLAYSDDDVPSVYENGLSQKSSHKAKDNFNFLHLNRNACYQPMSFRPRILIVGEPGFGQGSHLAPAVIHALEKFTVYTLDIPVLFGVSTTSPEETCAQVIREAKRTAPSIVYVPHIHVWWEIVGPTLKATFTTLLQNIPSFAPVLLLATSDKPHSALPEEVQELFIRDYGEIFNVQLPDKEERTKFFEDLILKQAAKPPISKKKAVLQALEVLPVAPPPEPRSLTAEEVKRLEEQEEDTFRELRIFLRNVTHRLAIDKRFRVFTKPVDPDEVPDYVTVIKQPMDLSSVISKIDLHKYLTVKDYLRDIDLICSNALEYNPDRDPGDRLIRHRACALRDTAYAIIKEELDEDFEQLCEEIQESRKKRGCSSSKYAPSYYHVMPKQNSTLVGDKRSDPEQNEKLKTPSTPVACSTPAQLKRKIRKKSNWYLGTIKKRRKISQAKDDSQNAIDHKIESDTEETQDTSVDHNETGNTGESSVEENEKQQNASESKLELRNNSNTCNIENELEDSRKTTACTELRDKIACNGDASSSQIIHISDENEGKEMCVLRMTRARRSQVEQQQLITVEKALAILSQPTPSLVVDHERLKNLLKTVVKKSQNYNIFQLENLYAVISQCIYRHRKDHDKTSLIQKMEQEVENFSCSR
Briefly: Binding affinity to human partial length ATAD2A (Q981 to R1108 residues) expressed in bacterial expression system by BROMOscan assay.

Assay [3] addresses Bromodomain-containing protein 2 (Homo sapiens, UniProt P25440). Nature of the assay: Binding affinity to full length BRD2 BD1 in human HuT78 cell lysates incubated for 45 mins by liquid chromatography-mass spectrometry based chemoproteomic binding assay. The format is subcellular.

Sequence of Bromodomain-containing protein 2 (P25440 whole entry): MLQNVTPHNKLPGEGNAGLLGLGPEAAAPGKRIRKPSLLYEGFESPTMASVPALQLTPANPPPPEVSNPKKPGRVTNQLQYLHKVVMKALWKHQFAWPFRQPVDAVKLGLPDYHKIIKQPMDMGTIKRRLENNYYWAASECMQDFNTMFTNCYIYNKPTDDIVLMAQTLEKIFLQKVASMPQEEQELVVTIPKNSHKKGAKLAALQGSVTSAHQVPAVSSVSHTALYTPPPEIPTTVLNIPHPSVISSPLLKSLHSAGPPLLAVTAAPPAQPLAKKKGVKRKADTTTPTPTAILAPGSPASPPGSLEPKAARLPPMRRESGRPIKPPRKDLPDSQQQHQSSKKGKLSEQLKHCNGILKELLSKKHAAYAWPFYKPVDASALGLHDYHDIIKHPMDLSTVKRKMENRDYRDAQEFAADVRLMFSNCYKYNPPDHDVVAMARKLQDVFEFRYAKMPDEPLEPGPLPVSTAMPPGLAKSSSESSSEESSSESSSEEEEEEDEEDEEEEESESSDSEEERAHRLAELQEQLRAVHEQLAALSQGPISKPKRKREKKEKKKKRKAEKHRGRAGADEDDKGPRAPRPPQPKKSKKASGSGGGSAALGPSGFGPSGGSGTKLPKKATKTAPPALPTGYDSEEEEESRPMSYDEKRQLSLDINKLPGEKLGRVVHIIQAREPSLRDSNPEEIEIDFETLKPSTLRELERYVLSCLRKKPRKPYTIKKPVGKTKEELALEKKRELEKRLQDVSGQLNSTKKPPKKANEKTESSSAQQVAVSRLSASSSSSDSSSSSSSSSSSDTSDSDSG
Sequence of Transcription initiation factor TFIID subunit 1 (P21675 whole entry, the tested form may be a part): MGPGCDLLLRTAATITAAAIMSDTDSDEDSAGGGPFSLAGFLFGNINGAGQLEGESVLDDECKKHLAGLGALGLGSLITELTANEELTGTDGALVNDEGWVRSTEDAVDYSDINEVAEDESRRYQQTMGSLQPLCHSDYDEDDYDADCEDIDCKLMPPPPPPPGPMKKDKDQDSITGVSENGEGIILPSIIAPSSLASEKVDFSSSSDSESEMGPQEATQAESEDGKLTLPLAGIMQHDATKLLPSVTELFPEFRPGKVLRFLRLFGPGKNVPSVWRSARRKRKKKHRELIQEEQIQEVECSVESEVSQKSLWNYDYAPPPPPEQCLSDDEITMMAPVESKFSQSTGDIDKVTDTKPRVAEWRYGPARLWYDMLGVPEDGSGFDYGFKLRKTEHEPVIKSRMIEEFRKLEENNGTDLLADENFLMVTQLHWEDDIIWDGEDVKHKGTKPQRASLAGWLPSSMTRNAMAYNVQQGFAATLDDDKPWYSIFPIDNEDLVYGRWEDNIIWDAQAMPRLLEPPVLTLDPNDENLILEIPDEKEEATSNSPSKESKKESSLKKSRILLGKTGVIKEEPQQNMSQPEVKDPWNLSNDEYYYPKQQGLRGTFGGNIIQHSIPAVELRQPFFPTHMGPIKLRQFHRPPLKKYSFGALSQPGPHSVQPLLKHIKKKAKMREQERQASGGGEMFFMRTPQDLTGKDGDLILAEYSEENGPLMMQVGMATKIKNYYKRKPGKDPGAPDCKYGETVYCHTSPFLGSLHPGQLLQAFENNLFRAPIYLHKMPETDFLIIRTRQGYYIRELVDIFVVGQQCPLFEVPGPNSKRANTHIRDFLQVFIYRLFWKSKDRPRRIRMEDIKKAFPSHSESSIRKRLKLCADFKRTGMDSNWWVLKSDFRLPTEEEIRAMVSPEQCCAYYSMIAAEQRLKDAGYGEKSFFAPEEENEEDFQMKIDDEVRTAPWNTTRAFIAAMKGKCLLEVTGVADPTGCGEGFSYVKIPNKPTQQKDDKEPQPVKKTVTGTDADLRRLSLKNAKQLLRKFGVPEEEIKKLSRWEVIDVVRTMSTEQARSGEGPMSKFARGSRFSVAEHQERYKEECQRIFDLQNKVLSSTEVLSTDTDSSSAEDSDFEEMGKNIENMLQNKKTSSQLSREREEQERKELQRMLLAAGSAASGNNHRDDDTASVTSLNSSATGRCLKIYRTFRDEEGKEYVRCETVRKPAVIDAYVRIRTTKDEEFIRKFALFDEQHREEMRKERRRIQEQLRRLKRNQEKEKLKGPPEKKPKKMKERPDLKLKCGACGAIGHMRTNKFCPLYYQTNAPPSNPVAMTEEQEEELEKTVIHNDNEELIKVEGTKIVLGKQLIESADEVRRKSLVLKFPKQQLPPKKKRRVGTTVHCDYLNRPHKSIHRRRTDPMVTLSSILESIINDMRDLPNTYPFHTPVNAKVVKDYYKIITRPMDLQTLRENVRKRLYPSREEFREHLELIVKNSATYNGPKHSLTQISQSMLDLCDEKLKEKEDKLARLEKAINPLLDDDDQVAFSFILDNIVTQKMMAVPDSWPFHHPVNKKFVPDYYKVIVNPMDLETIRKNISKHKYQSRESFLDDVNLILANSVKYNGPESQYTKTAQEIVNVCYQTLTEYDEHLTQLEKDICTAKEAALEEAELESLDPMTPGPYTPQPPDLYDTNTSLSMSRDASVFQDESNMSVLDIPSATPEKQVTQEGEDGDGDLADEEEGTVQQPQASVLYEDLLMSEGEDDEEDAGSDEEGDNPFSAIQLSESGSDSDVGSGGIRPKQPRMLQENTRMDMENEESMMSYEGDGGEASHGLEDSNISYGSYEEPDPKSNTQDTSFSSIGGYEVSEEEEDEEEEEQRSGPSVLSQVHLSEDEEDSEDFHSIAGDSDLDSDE

In assay [1], `Cc1cc2c(-c3ccco3)cnc(N[C@@H]3CCN(C)C[C@H]3C(=O)NC3CCCCC3)c2[nH]c1=O` [GSK789] showed an IC50 of 10 µM. Moreover, the Kd was 15.8 µM in assay [2] and 0.00398 µM in assay [3].
